Results from patent publication US20240156790A1, “COMPOUNDS, COMPOSITIONS, AND METHODS FOR MODULATING FERROPTOSIS AND TREATING EXCITOTOXIC DISORDERS” (THE TRUSTEES OF COLUMBIA UNIVERSITY IN THE CITY OF NEW YORK, priority 2018, published 2024).
Entries after “also recorded” stand apart in the source; their conditions may differ. Read-outs that look alike come from different tables or passages of the source.

Columns and labels:
[1] = tested on: R6/2 Huntington's mouse model; test: 30-day toxicity study in symptomatic R6/2 and wild type mice; format: in vivo; settings: for tolerability of chronic administration: 20 mg/kg daily for 30 days, IP and PO; for protection against body weight loss / deaths after 30 days: R6/2 mice; for deaths after 30 days: 20 mg/kg daily
Protocol: In order to assess whether ferrostatins can be used in a long-term efficacy, we performed a toxicity study with the three analogs to determine whether symptomatic R6/2 mice could tolerate chronic administration of analog. Use TH-4-55-2 as an example: symptomatic R6/2 mice of both sexes at ˜10 weeks of age were dosed daily with 20 mg/kg TH-4-55-2 via both IP and oral gavage for 30 days. Body weight was measured and recorded and the % change in body weight from the baseline calculated. Any mice that lost more than 20% of their body weight for three days were euthanized prior to the completion of the study.
Ferrostatin analogs were dissolved in 5% DMSO/95% of 1:1 [(65% v/v of 25% w/v 2-hydroxypropyl-β-cyclodextrin dissolved in 20% EtOH, 30% v/v Poly(ethylene glycol)-400, 5% v/v Tween 80):MilliQ water] to create a 2 mg/mL solution. The same formulation without analog was used as a vehicle control. The solution was sterilized using a […] Steriflip filter unit. C57BL/6 and R6/2 mice at ˜10 weeks of age, after onset of symptoms in R6/2 mice, were injected with ferrostatin analog or vehicle at a dose of 20 mg/kg daily for 30 days via IP and PO routes of administration. […] Mice were randomly assigned to each condition, weighed daily, the weight recorded, and the change in body weight compared to the baseline, pre-injection weight was calculated. Any mouse that lost more than 20% of its baseline body weight for three consecutive days was euthanized prior to the completion of the study. Injections occurred daily at the same time in the day to ensure consistency. Experimental blinding was achieved by separating the syringe preparation and the injection and data analysis components, with one researcher preparing the syringes and the other injecting the mice and analyzing the data. Unblinding occurred at the termination of the study after the completion of data analysis. Data were plotted and analyzed in Graph Pad Prism 9.0 with significance determined via Two Way ANOVA or Mixed-effects model with Tukey's test for multiple comparisons.
Symptomatic R6/2 and age-matched C57BL/6 wild type mice of both sexes at ˜10 weeks of age were dosed daily with 20 mg/kg of TH-4-55-2 via IP or PO for 30 days. Body weight was measured and recorded and the percent change in body weight from baseline calculated. Per IACUC guidelines, any mouse that lost more than 20% body weight for three days was euthanized prior to completion of the study.

[2] = Solubility in the in vivo injection vehicle; format: physicochemical; settings: solution prepared for in vivo injection, no precipitation observed
Protocol: To achieve the 20 mg/kg dose for each compound, mice were injected with a 2 mg/mL solution in the vehicle described above.

[3] = Microsomal Stability Assay (Examples 6 and 8); format: in vitro ADME, mouse; settings: for half-life at 20 µM: CD-1, mouse, liver microsomes; for microsomal stability / half-life, in words: assessed over two hours
Protocol: (§1) To a 96-well polypropylene plate was added phosphate buffer (182.2 μL, pH 7.4, 100 mM) followed by addition of NADPH-regenerating system solution A (10 μL), and NADPH regenerating system solution B (2 μL) (Corning Gentest 3P NADPH regenerating system solution A (#451220) and B (#451200)). A stock solution of analog (0.8 μL. 5 mM) or fer-1 (positive control) was added and the mixture was warmed to 37° C. for 5 min. Mouse microsomes (CD-1, 20 mg/mL, Life Technologies) (5 μL, thawed in 37° C. water bath before use) were added. The resulting reaction mixture was kept at 37° C. with gentle agitation for the duration of the experiment. At selected time points (0, 1, 5, 10, 20, 30, 60 and 120 min) aliquots (15 μL) were withdrawn from the plate and quenched upon addition to cold methanol (60 μL), containing an internal standard (5 μM) in a separate 96-well polypropylene plate. At the completion of the final time-point, the samples were centrifuged at 4,000 rpm for 5 min at 4° C. The supernatant (40 μL) was withdrawn and transferred to a sample vial with insert. The samples were analyzed by LC-MS. LC-MS analysis was performed on a platform comprising a Thermo Scientific Dionex Ultimate 3000 and a Bruker amaZon SL equipped with an electrospray ionization source controlled by Bruker Hystar 3.2. Chromatographic separation was performed by injecting 5 μL of the sample onto an Agilent Eclipse Plus C18 column (2.1×50 mm, 3.5 μm) maintained at 20° C. The flow rate was maintained at 400 μL/min. The initial flow conditions were 80% solvent A (water containing 0.1% acetic acid) and 20% solvent B (methanol containing 0.1% acetic acid). Solvent B was raised to 80% over 0.50 min by 1.50 min. Solvent B was raised to 100% by 5.00 min and held there for 3.25 min. […] All analogs were detected in positive mode as [M+H]*. The percent of compound remaining at each time-point was calculated as the ratio of the integrated compound peak over the internal standard peak and standardized to the t=0 time-point. Values were plotted in GraphPad Prism 9 and fit with a one phase decay.
as §1, with “and NADPH-regenerating” for “and NADPH regenerating”, “rpm (1872 g)” for “rpm”, “[M+H]*. […]” for “[M+H]*. The percent of compound remaining at each time-point was calculated as the ratio of the integrated compound peak over the internal standard peak and standardized to the t=0 time-point. Values were plotted in GraphPad Prism 9 and fit with a one phase decay.”

[4] = pH 7.4, independent test I, read-out: t1/2 I
[5] = pH 7.4, independent test II, read-out: t1/2 II
[6] = pH 7.4, independent test III, read-out: t1/2 III
[7] = pH 7.4, text, read-out: half-life in mouse liver microsomes

Cc1noc(-c2cnc(NC3CCCCC3)c(NC3CCCCC3)c2)n1 [TH-2-31, N^2,N^3-dicyclohexyl-5-(3-methyl-1,2,4-oxadiazol-5-yl)pyridine-2,3-diamine]
tolerability of chronic administration [1]: no detectable weight loss induced by either compound
protection against body weight loss ([1]; PO administration, 20 mg/kg): didn't show this protective effect
Concentration (mM) [2]: 5.6 mM
Concentration (mg/mL) [2]: 2 mg/mL
half-life at 20 µM [3, 4]: > 2 h
half-life at 20 µM [3, 5]: > 2 h
half-life at 20 µM [3, 6]: > 2 h
half-life at 20 µM [3, 7]: 0.5 to 1 h
microsomal stability / half-life, in words [3]: the most stable; also recorded: half-life greater than two hours

Cc1noc(-c2ccc(NC3CCCCC3)c(NC3CCCCC3)c2)n1 [PHB4082, N1,N2-dicyclohexyl-4-(3-methyl-1,2,4-oxadiazol-5-yl)benzene-1,2-diamine]
microsomal stability / half-life, in words [3]: half-lives greater than two hours

CCOC(=O)c1ccc(NC2CCCCC2)c(N)c1 [Fer-1, Ferrostatin-1, reference compound]
half-life at 20 µM [3, 7]: 0.04 h

Cc1noc(-c2cnc(NC3CCCC3)c(NC3CCCC3)c2)n1 [TH-4-67, N^2,N^3-dicyclopentyl-5-(3-methyl-1,2,4-oxadiazol-5-yl)pyridine-2,3-diamine]
tolerability of chronic administration [1]: no detectable weight loss induced by either compound
protection against body weight loss ([1]; PO administration, 20 mg/kg): didn't show this protective effect
Concentration (mM) [2]: 6.1 mM
Concentration (mg/mL) [2]: 2 mg/mL
half-life at 20 µM [3, 4]: > 2 h
half-life at 20 µM [3, 5]: > 2 h
half-life at 20 µM [3, 6]: > 2 h
half-life at 20 µM [3, 7]: > 1 h
microsomal stability / half-life, in words [3]: half-life greater than two hours

CCC(CC)Nc1cc(-c2nc(C)no2)cnc1NC1CCCCC1 [TH-4-55-2, N^2-cyclohexyl-5-(3-methyl-1,2,4-oxadiazol-5-yl)-N^3-(pentan-3-yl)pyridine-2,3-diamine]
tolerability of chronic administration [1]: well-tolerated in a 30-day toxicity study in wild-type mice and symptomatic R6/2 HD mice; also recorded: non-toxic and well-tolerated by R6/2 mice
deaths after 30 days ([1]; IP administration): one TH-4-55-2-treated mouse died
deaths after 30 days ([1]; PO administration, 20 mg/kg): one TH-4-55-2-treated mouse died; also recorded: one TH-4-55-2-treated mice died
protection against body weight loss ([1]; PO administration, 20 mg/kg): protected from body weight loss over time; also recorded: showed protection against HD-related weight loss; also recorded: showed a significant protective effect; also recorded: appeared to have no loss in body weight during the injection series
Concentration (mM) [2]: 5.8 mM
Concentration (mg/mL) [2]: 2 mg/mL
half-life at 20 µM [3, 4]: > 2 h
half-life at 20 µM [3, 5]: > 2 h
half-life at 20 µM [3, 6]: > 2 h
half-life at 20 µM [3, 7]: > 1 h
microsomal stability / half-life, in words [3]: half-life greater than two hours
